# Assay results taken from PubChem BioAssay AID2060903 (Molecular Pharmacology Branch, DTP, NCI, 2025).
# Tested on: 377384-186-R-J1-PDC complex spheroid viability
# Assay: Anticancer human tumor 377384-186-R-J1-PDC patient-derived pancreatic carcinoma cell line growth inhibition [RAS]
# Conditions: for IC50: curve of first compound; for viability, T/C: stronger effect = lower value
# Method in brief: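 Agents were tested in combination matrices in half-log decrements from a top concentration at or near clinical Cmax (10 microM if undetermined). Targets were multi-cell spheroids of tumour lines plus HUVEC and MSC stromal cells.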
# [1] = second compound 0.000949 µM, first compound 0.0316 µM
# [2] = second compound 0.000949 µM, first compound 0.1 µM
# [3] = second compound 0.000949 µM, first compound 0.316 µM
# [4] = second compound 0.000949 µM, first compound 1 µM
# [5] = second compound 0.003 µM, first compound 0.0316 µM
# [6] = second compound 0.003 µM, first compound 0.1 µM
# [7] = second compound 0.003 µM, first compound 0.316 µM
# [8] = second compound 0.003 µM, first compound 1 µM
# [9] = second compound 0.00949 µM, first compound 0.0316 µM
# [10] = second compound 0.00949 µM, first compound 0.1 µM
# [11] = second compound 0.00949 µM, first compound 0.316 µM
# [12] = second compound 0.00949 µM, first compound 1 µM
# [13] = second compound 0.03 µM, first compound 0.0316 µM
# [14] = second compound 0.03 µM, first compound 0.1 µM
# [15] = second compound 0.03 µM, first compound 0.316 µM
# [16] = second compound 0.03 µM, first compound 1 µM
# [17] = second compound 0.0949 µM, first compound 0.0316 µM
# [18] = second compound 0.0949 µM, first compound 0.1 µM
# [19] = second compound 0.0949 µM, first compound 0.316 µM
# [20] = second compound 0.0949 µM, first compound 1 µM
# [21] = second compound 0.3 µM, first compound 0.0316 µM
# [22] = second compound 0.3 µM, first compound 0.1 µM
# [23] = second compound 0.3 µM, first compound 0.316 µM
# [24] = second compound 0.3 µM, first compound 1 µM
# 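Note: spheroids exposed to compounds for seven days before readout.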
structure (smiles),measurement,setting,value
Nc1ccn(C2OC(CO)C(O)C2(F)F)c(=O)n1 (stereo not given) + C#Cc1c(F)ccc2cc(O)cc(-c3ncc4c(N5CC6CCC(C5)N6)nc(OCC56CCCN5CC(F)C6)nc4c3F)c12,IC50,second compound 0.0316 µM,< 3.16 nM
same,IC50,second compound 0.1 µM,< 3.16 nM
same,IC50,second compound 0.316 µM,< 3.16 nM
same,IC50,second compound 1 µM,< 3.16 nM
same,IC50,second compound 3.16 µM,< 3.16 nM
same,IC50,second compound 10 µM,< 3.16 nM
same,"viability, T/C","second compound 0.0316 µM, first compound 0.00316 µM",18.7%
same,"viability, T/C","second compound 0.0316 µM, first compound 0.01 µM",10.9%
same,"viability, T/C","second compound 0.0316 µM, first compound 0.0316 µM",5.1%
same,"viability, T/C","second compound 0.0316 µM, first compound 0.1 µM",2.32%
same,"viability, T/C","second compound 0.0316 µM, first compound 0.316 µM",1.53%
same,"viability, T/C","second compound 0.0316 µM, first compound 1 µM",1.48%
same,"viability, T/C","second compound 0.1 µM, first compound 0.00316 µM",10.6%
same,"viability, T/C","second compound 0.1 µM, first compound 0.01 µM",5.99%
same,"viability, T/C","second compound 0.1 µM, first compound 0.0316 µM",3.67%
same,"viability, T/C","second compound 0.1 µM, first compound 0.1 µM",2.25%
same,"viability, T/C","second compound 0.1 µM, first compound 0.316 µM",1.8%
same,"viability, T/C","second compound 0.1 µM, first compound 1 µM",1.59%
same,"viability, T/C","second compound 0.316 µM, first compound 0.00316 µM",3.96%
same,"viability, T/C","second compound 0.316 µM, first compound 0.01 µM",3.01%
same,"viability, T/C","second compound 0.316 µM, first compound 0.0316 µM",2.14%
same,"viability, T/C","second compound 0.316 µM, first compound 0.1 µM",1.91%
same,"viability, T/C","second compound 0.316 µM, first compound 0.316 µM",1.53%
same,"viability, T/C","second compound 0.316 µM, first compound 1 µM",1.47%
same,"viability, T/C","second compound 1 µM, first compound 0.00316 µM",2.36%
same,"viability, T/C","second compound 1 µM, first compound 0.01 µM",2.41%
same,"viability, T/C","second compound 1 µM, first compound 0.0316 µM",1.7%
same,"viability, T/C","second compound 1 µM, first compound 0.1 µM",1.46%
same,"viability, T/C","second compound 1 µM, first compound 0.316 µM",1.44%
same,"viability, T/C","second compound 1 µM, first compound 1 µM",1.36%
same,"viability, T/C","second compound 3.16 µM, first compound 0.00316 µM",2.1%
same,"viability, T/C","second compound 3.16 µM, first compound 0.01 µM",1.41%
same,"viability, T/C","second compound 3.16 µM, first compound 0.0316 µM",1.83%
same,"viability, T/C","second compound 3.16 µM, first compound 0.1 µM",1.8%
same,"viability, T/C","second compound 3.16 µM, first compound 0.316 µM",1.48%
same,"viability, T/C","second compound 3.16 µM, first compound 1 µM",1.3%
same,"viability, T/C","second compound 10 µM, first compound 0.00316 µM",1.37%
same,"viability, T/C","second compound 10 µM, first compound 0.01 µM",1.08%
same,"viability, T/C","second compound 10 µM, first compound 0.0316 µM",1.21%
same,"viability, T/C","second compound 10 µM, first compound 0.1 µM",1.3%
same,"viability, T/C","second compound 10 µM, first compound 0.316 µM",1.62%
same,"viability, T/C","second compound 10 µM, first compound 1 µM",1.15%
CCC(CC)c1cc(NC2CCC(N)C2)n2nccc2n1 (stereo not given) + CCn1c(-c2cccnc2C(C)OC)c2c3cc(ccc31)N1CCOC(CC(NC(=O)C(C(C)C)N(C)C(=O)C3(F)CCN(C(=O)C#CC(C)(C)N(C)C)CC3)C(=O)N3CCCC(N3)C(=O)OCC(C)(C)C2)C1,IC50,second compound 0.000949 µM,1720 nM
same,IC50,second compound 0.003 µM,1580 nM
same,IC50,second compound 0.00949 µM,1600 nM
same,IC50,second compound 0.03 µM,1540 nM
same,IC50,second compound 0.0949 µM,1230 nM
same,IC50,second compound 0.3 µM,851 nM
same,"viability, T/C",[1],101%
same,"viability, T/C",[2],96.9%
same,"viability, T/C",[3],115%
same,"viability, T/C",[4],91.9%
same,"viability, T/C","second compound 0.000949 µM, first compound 3.16 µM",2.57%
same,"viability, T/C","second compound 0.000949 µM, first compound 10 µM",3.88%
same,"viability, T/C",[5],109%
same,"viability, T/C",[6],115%
same,"viability, T/C",[7],108%
same,"viability, T/C",[8],81%
same,"viability, T/C","second compound 0.003 µM, first compound 3.16 µM",2.93%
same,"viability, T/C","second compound 0.003 µM, first compound 10 µM",3.96%
same,"viability, T/C",[9],90.4%
same,"viability, T/C",[10],114%
same,"viability, T/C",[11],120%
same,"viability, T/C",[12],82.3%
same,"viability, T/C","second compound 0.00949 µM, first compound 3.16 µM",3.02%
same,"viability, T/C","second compound 0.00949 µM, first compound 10 µM",4.29%
same,"viability, T/C",[13],104%
same,"viability, T/C",[14],99%
same,"viability, T/C",[15],107%
same,"viability, T/C",[16],77.6%
same,"viability, T/C","second compound 0.03 µM, first compound 3.16 µM",3.09%
same,"viability, T/C","second compound 0.03 µM, first compound 10 µM",4.72%
same,"viability, T/C",[17],90.8%
same,"viability, T/C",[18],91.5%
same,"viability, T/C",[19],95.8%
same,"viability, T/C",[20],60.1%
same,"viability, T/C","second compound 0.0949 µM, first compound 3.16 µM",3.31%
same,"viability, T/C","second compound 0.0949 µM, first compound 10 µM",4.2%
same,"viability, T/C",[21],94%
same,"viability, T/C",[22],86.1%
same,"viability, T/C",[23],86.3%
same,"viability, T/C",[24],44.2%
same,"viability, T/C","second compound 0.3 µM, first compound 3.16 µM",3.73%
same,"viability, T/C","second compound 0.3 µM, first compound 10 µM",3.93%
Nc1ccn(C2OC(CO)C(O)C2(F)F)c(=O)n1 (stereo not given) + CCn1c(-c2cc(N3CCN(C)CC3)cnc2C(C)OC)c2c3cc(ccc31)-c1csc(n1)CC(NC(=O)C1CC1C)C(=O)N1CCCC(N1)C(=O)OCC(C)(C)C2,IC50,second compound 0.000949 µM,< 3.16 nM
same,IC50,second compound 0.003 µM,< 3.16 nM
same,IC50,second compound 0.00949 µM,< 3.16 nM
same,IC50,second compound 0.03 µM,< 3.16 nM
same,IC50,second compound 0.0949 µM,< 3.16 nM
same,IC50,second compound 0.3 µM,< 3.16 nM
same,"viability, T/C","second compound 0.000949 µM, first compound 0.00316 µM",41.1%
same,"viability, T/C","second compound 0.000949 µM, first compound 0.01 µM",18.4%
same,"viability, T/C",[1],4.12%
same,"viability, T/C",[2],3.96%
same,"viability, T/C",[3],3.39%
same,"viability, T/C",[4],3.44%
same,"viability, T/C","second compound 0.003 µM, first compound 0.00316 µM",19%
same,"viability, T/C","second compound 0.003 µM, first compound 0.01 µM",8.01%
same,"viability, T/C",[5],5.2%
same,"viability, T/C",[6],2.62%
same,"viability, T/C",[7],3.06%
same,"viability, T/C",[8],2.55%
same,"viability, T/C","second compound 0.00949 µM, first compound 0.00316 µM",4.2%
same,"viability, T/C","second compound 0.00949 µM, first compound 0.01 µM",3.81%
same,"viability, T/C",[9],3.02%
same,"viability, T/C",[10],2.45%
same,"viability, T/C",[11],2.8%
same,"viability, T/C",[12],2.63%
same,"viability, T/C","second compound 0.03 µM, first compound 0.00316 µM",2.29%
same,"viability, T/C","second compound 0.03 µM, first compound 0.01 µM",3.33%
same,"viability, T/C",[13],2.15%
same,"viability, T/C",[14],2.11%
same,"viability, T/C",[15],3.23%
same,"viability, T/C",[16],2.21%
same,"viability, T/C","second compound 0.0949 µM, first compound 0.00316 µM",2.1%
same,"viability, T/C","second compound 0.0949 µM, first compound 0.01 µM",2.03%
same,"viability, T/C",[17],1.97%
same,"viability, T/C",[18],1.8%
same,"viability, T/C",[19],1.92%
same,"viability, T/C",[20],1.8%
same,"viability, T/C","second compound 0.3 µM, first compound 0.00316 µM",1.98%
same,"viability, T/C","second compound 0.3 µM, first compound 0.01 µM",2.16%
same,"viability, T/C",[21],1.73%
same,"viability, T/C",[22],1.47%
same,"viability, T/C",[23],1.95%
same,"viability, T/C",[24],2.17%
CC(C)n1nc(-c2ccc3oc(N)nc3c2)c2c(N)ncnc21,"viability, T/C",compound 0.001 µM,80.6% [middle of 4 runs]
same,"viability, T/C",compound 0.00316 µM,69% [middle of 4 runs]
same,"viability, T/C",compound 0.01 µM,61.9% [middle of 4 runs]
same,"viability, T/C",compound 0.0316 µM,34.8% [middle of 4 runs]
